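Compound exposure: 48 hours, 5 concentrations, 96-well plates. At the GI50, growth is halved. TGI is the concentration that stops growth completely.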
Legend:
Test in all cases: growth of human tumour cells (NCI), 48 h
OVCAR-4 ovarian = test system: OVCAR-4 ovarian
MDA-MB-231 breast = test system: MDA-MB-231 breast
LOX IMVI melanoma = test system: LOX IMVI melanoma
SF-295 CNS = test system: SF-295 CNS
NCI/ADR-RES ovarian = test system: NCI/ADR-RES ovarian
COLO 205 colon = test system: COLO 205 colon
SK-MEL-2 melanoma = test system: SK-MEL-2 melanoma
HOP-62 NSCLC = test system: HOP-62 NSCLC
KM12 colon = test system: KM12 colon
M14 melanoma = test system: M14 melanoma

| Structure (SMILES) | TGI (OVCAR-4 ovarian) [µM] | TGI (MDA-MB-231 breast) [µM] | TGI (LOX IMVI melanoma) [µM] | TGI (SF-295 CNS) [µM] | TGI (NCI/ADR-RES ovarian) [µM] | TGI (COLO 205 colon) [µM] | TGI (SK-MEL-2 melanoma) [µM] | TGI (HOP-62 NSCLC) [µM] | TGI (KM12 colon) [µM] | TGI (M14 melanoma) [µM] | GI50 (OVCAR-4 ovarian) [µM] | GI50 (MDA-MB-231 breast) [µM] | GI50 (LOX IMVI melanoma) [µM] | GI50 (SF-295 CNS) [µM] | GI50 (NCI/ADR-RES ovarian) [µM] | GI50 (SK-MEL-2 melanoma) [µM] | GI50 (HOP-62 NSCLC) [µM] | GI50 (KM12 colon) [µM] | GI50 (M14 melanoma) [µM] |
| --- | --- | --- | --- | --- | --- | --- | --- | --- | --- | --- | --- | --- | --- | --- | --- | --- | --- | --- | --- |
| CCOC(=O)c1c(N2CCOCC2)[nH]c(=O)c(C(c2c(Cl)cccc2Cl)c2c(O)c(C(=O)OCC)c(N3CCOCC3)[nH]c2=O)c1O | 24.1 | 24.9 | 9.08 | 30.6 | 33.8 | 14.9 | 16.2 | 30.4 | 33.2 | 5.15 |  |  |  |  |  |  |  |  |  |
| CO/C=C(/C(=O)OC)c1ccccc1COc1cccc(C(F)(F)F)c1 | > 100 | 68.8 | 13.6 | > 100 | > 100 | 28.5 | 34.2 | > 100 | > 100 | > 100 |  |  |  |  |  |  |  |  |  |
| Cc1ccc2c3c1O[C@H]1c4[nH]c5ccccc5c4C[C@@]4(O)[C@@H](C2)N(CC2CC2)CC[C@]314 | 17.8 | 35.6 | 33.1 | 31.1 | 42.2 | 30.8 | 31.6 | 33.3 | 32.5 | 32.4 |  |  |  |  |  |  |  |  |  |
| C[N+]1(C)CCc2cc(O)c(O)cc2C1Cc1ccc(O)c(O)c1 (stereo not drawn) | 45.6 | > 100 | 81 | > 100 | > 100 | > 100 | > 100 | > 100 | > 100 | > 100 |  |  |  |  |  |  |  |  |  |
| O=C(NCP(=O)(c1ccccc1)c1ccccc1)OCc1ccccc1 | > 100 | > 100 | > 100 | > 100 | > 100 | > 100 | > 100 | > 100 | > 100 | > 100 |  |  |  |  |  |  |  |  |  |
| COC(=O)C1=CS/C(=C2\S[C@@H]3[C@H](S2)[C@H]2C=C[C@@H]3C2)S1 | > 100 | > 100 | > 100 | 17.9 | 47.8 | > 100 | > 100 | > 100 | > 100 | > 100 |  |  |  |  |  |  |  |  |  |
| Cc1ccc([N+](=O)[O-])c2c(NCCC[N+](C)(C)[O-])c3ccccc3nc12 | 21.2 | 6.28 | 9.2 | > 100 | > 100 | 2.56 | 2.25 | > 41.1 | > 21.1 | 7.42 |  |  |  |  |  |  |  |  |  |
| Cc1ccc(S(=O)(=O)N/N=C2/CCCOC2)cc1 | > 100 | > 100 | > 100 | > 100 | > 100 | > 100 | > 100 | > 100 | > 100 | > 100 |  |  |  |  |  |  |  |  |  |
| O=c1cc(N2CCCC2)[nH]c(=O)n1-c1cccc(Cl)c1 | > 100 | > 100 | > 100 | > 100 | > 100 | > 100 | > 100 | > 100 | > 100 | > 100 |  |  |  |  |  |  |  |  |  |
| COc1ccccc1CNCCCN1C(=O)c2ccc3c4c(ccc(c24)C1=O)C(=O)N(CCCNCCNCCCN)C3=O | 1.68 | > 100 | 10.4 | 12.6 | > 100 |  | 6.49 | 14.2 | 11.4 | 4.49 | 0.466 | 2.09 | 2.1 | 2.77 | 23.1 | 2.67 | 2.46 | 3.25 | 2.07 |

Reference: PubChem BioAssay (NCI)
